The text below walks through data of patent US7470711B2, “Piperidinyl substituted cyclohexane-1,4-diamines” (Janssen Pharmaceutica N.V., priority 2005, dated 2008).

The subject of one data set is BPH patients. As to conditions: large clinical trials of BPH patients; cited from earlier work.
Data set [1] has as its system α1a and α1d subtypes over the α1b subtype. As to conditions: cited from earlier work.
The target in another data set is T1, α1d-AR (Homo sapiens, UniProt P25100).
T1 construct: expressed in transfected cells; host or cells: COS-7 cells (membranes)
T1 sequence (P25100 1-572): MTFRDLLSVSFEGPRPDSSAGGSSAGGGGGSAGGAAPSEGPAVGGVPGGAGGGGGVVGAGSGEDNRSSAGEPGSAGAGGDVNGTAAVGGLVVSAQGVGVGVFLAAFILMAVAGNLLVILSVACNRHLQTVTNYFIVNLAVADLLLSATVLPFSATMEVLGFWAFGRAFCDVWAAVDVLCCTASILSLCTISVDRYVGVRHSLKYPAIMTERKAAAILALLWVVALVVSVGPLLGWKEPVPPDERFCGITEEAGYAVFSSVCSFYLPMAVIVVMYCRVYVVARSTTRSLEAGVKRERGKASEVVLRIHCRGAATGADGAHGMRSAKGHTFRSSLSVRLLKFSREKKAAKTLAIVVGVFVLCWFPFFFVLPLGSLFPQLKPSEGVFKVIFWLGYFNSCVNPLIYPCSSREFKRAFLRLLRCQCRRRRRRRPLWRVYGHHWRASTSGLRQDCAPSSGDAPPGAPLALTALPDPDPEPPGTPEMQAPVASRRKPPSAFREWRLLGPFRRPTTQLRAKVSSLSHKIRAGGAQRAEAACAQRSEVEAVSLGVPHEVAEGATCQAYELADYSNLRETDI
Nature of the data set: α1-Adrenergic receptor radio-ligand binding assay, α1d subtype. As for the experimental part:
(§1) Membranes were prepared from COS-7 cells (African Green monkey kidney SV40-transformed cells) that had been transfected with one of the three α1-AR subtypes (Genbank accession number for the α1a subtype: AF013261; Genbank accession number for the α1b subtype: NM000679; Genbank accession number for the α1d subtype: NM000678) using the following method: COS cells from ten 100 mm tissue culture plates were scraped into a 5 mL volume of TE (a mixture of 50 mM Tris-HCl, 5 mM EDTA, pH 7.4). […] The disrupted cells were centrifuged at 1000×g for 10 min at 4° C. Supernatants were centrifuged at 34,500×g for 20 min at 4° C. The membrane pellets were suspended in a 2 mL volume of TNE (a mixture of 50 mM Tris-HCl, 5 mM EDTA and 150 mM NaCl at pH 7.4). An aliquot of the membrane suspension was stored at −70° C. until use. The protein concentration was determined using the BioRad “DC” protein assay kit following membrane solubilization with Triton X-100.
(§2) Triplicate determinations of radio-ligand binding in the presence of increasing concentrations of testing compound were made. The reagents were added to 96-well polypropylene plate wells. […] The plate was incubated at rt for 1 hr. The contents of the wells were filtered through a glass filter (type C) (GF/C) membrane Unifilter plate (Packard Instruments) using the Packard Filtermate cell harvester. The filter plates were dried in a vacuum oven for 30 min at 40° C. 25 μL Microscint 20 liquid scintillation fluid (Packard Instuments) was added to each well. The radioactive content was analyzed in the TopCount microplate scintillation counter (Packard Instruments).

The target of a further data set is T2, α1a-AR (Homo sapiens, UniProt P35348).
T2 construct: expressed in transfected cells; host or cells: COS-7 cells (membranes)
T2 sequence (P35348 1-455 isoform P35348-4): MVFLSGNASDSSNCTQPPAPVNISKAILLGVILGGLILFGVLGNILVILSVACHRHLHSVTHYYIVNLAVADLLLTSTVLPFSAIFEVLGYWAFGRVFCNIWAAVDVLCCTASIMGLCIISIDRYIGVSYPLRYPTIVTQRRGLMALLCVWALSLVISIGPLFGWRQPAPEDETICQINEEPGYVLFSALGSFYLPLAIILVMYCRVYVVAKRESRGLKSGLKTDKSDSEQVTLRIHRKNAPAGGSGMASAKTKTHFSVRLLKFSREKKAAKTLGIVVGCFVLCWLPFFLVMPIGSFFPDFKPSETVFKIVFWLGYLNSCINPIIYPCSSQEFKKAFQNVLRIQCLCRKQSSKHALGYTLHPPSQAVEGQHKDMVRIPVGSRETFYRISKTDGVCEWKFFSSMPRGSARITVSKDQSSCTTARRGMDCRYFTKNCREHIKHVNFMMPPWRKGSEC
Nature of the data set: α1-Adrenergic receptor radio-ligand binding assay, α1a subtype. As for the experimental part: as §1, §2

The target of the next data set is T3, α1b-AR (Homo sapiens, UniProt P35368).
T3 construct: expressed in transfected cells; host or cells: COS-7 cells (membranes)
T3 sequence (P35368 1-520): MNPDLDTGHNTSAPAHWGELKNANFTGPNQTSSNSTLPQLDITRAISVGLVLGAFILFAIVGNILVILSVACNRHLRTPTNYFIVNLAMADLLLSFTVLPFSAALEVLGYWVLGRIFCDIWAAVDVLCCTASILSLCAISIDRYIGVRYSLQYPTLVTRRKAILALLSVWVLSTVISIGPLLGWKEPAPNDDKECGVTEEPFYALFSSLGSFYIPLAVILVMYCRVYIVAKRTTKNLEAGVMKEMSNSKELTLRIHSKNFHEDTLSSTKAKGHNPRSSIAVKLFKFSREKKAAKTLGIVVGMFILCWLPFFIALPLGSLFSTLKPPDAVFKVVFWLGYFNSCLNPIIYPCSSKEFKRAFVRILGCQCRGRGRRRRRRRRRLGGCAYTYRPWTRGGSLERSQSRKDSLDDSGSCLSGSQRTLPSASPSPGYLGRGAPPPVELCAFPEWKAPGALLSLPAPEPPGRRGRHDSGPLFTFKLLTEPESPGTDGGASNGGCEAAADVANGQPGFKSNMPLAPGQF
Kind of data set: α1-Adrenergic receptor radio-ligand binding assay, α1b subtype. As for the experimental part: as §1, §2

The test system of data set [2] is normal rats and rats with bladder hypertrophy secondary to outlet obstruction. As to conditions: intrathecally administered; cited from earlier work.
[3] abbreviates: 125I-HEAT, membranes of COS-7 cells transfected with α1d subtype, rt 1 hr, read-out: Receptor Binding, Ki α1d-AR.
Setting [4] is: 125I-HEAT, membranes of COS-7 cells transfected with α1b subtype, rt 1 hr, read-out: Receptor Binding, Ki α1b-AR.
The mark [5] stands for this setting: 125I-HEAT, membranes of COS-7 cells transfected with α1a subtype, rt 1 hr, read-out: Receptor Binding, Ki α1a-AR.

The structures appear in SMILES notation. Like-named read-outs stand apart in the source and are kept apart here.

Turning to `CCOc1ccccc1OCCN[C@H](C)Cc1ccc(OC)c(S(N)(=O)=O)c1` [Tamsulosin], in the data set on BPH patients, the “effect on obstructive and irritative symptoms” value was “improvement in both obstructive and irritative symptoms”; the side effects seen entry is “cardiovascular and erectile dysfunction side effects were seen”. In addition, the “selectivity for the α1a and α1d subtypes over the α1b subtype” value in data set [1] was “about 15 fold”.
A word on the Ki: it is a dissociation constant, usually derived from enzyme kinetics or from competition with a known ligand. By melting point is commonly meant the temperature, or range, at which the solid turns liquid. The compound `COc1ccc(S(=O)(=O)N[C@H]2CC[C@H](N3CCC(c4ccccc4OCC(F)F)CC3)CC2)cc1OC` [Cpd 30, N-trans-(4-{4-[2-(2,2-difluoro-ethoxy)-phenyl]-piperidin-1-yl}-cyclohexyl)-3,4-dimethoxy-benzenesulfonamide] came in with a melting point of 197 °C. In addition, at α1d-AR (setting [3]), the inhibition constant Ki turned out to be 0.086 µM. The inhibition constant Ki on α1a-AR is 0.0305 µM. Besides, the Ki at α1b-AR (setting [4]) was determined as 0.681 µM.
The compound `O=S(=O)(N[C@H]1CC[C@@H](N2CCC(c3ccccc3OCC(F)(F)F)CC2)CC1)c1cccc(OC(F)F)c1` [Cpd 23, 3-difluoromethoxy-N-cis-(4-{4-[2-(2,2,2-trifluoro-ethoxy)-phenyl]-piperidin-1-yl}-cyclohexyl)-benzenesulfonamide] registered a melting point of 105 °C. The Ki on α1d-AR (setting [3]) came to 0.0059 µM. Besides, the Ki on α1a-AR (setting [5]) came out at 0.007 µM. Besides, the inhibition constant (Ki) on α1b-AR (setting [4]) stood at 0.261 µM.
As for `O=S(=O)(N[C@H]1CC[C@@H](N2CCC(c3ccccc3OCC(F)(F)F)CC2)CC1)c1ccc2c(c1)OCCO2` [Cpd 13, 2,3-dihydro-benzo[1,4]dioxine-6-sulfonic acid cis-(4-{4-[2-(2,2,2-trifluoro-ethoxy)-phenyl]-piperidin-1-yl}-cyclohexyl)-amide], the melting point was found to be 190 °C. This compound yielded a Ki at α1d-AR of 0.003 µM. This compound also registered a Ki on α1a-AR of 0.004 µM. Moreover, the inhibition constant (Ki) on α1b-AR came out at 0.092 µM.
Compound `O=S(=O)(N[C@H]1CC[C@H](N2CCC(c3ccccc3OCC(F)(F)F)CC2)CC1)c1ccc2c(c1)OCCO2` [Cpd 14, 2,3-dihydro-benzo[1,4]dioxine-6-sulfonic acid trans-(4-{4-[2-(2,2,2-trifluoro-ethoxy)-phenyl]-piperidin-1-yl}-cyclohexyl)-amide] showed a melting point of 146 °C. The compound further showed an inhibitory constant (Ki) at α1d-AR of 0.026 µM. The same compound registered a Ki on α1a-AR of 0.0022 µM. This compound also came in with an inhibition constant (Ki) at α1b-AR of 0.0906 µM.
Compound `O=S(=O)(N[C@H]1CC[C@@H](N2CCC(c3ccccc3OCC(F)(F)F)CC2)CC1)c1ccc(OC(F)F)cc1` [Cpd 25, 4-difluoromethoxy-N-cis-(4-{4-[2-(2,2,2-trifluoro-ethoxy)-phenyl]-piperidin-1-yl}-cyclohexyl)-benzenesulfonamide] yielded a melting point of 196 °C. Moreover, the Ki on α1d-AR (setting [3]) is 0.0027 µM. Also, at α1a-AR (setting [5]), the inhibitory constant (Ki) turned out to be 0.0054 µM. On α1b-AR (setting [4]), the Ki came out at 0.076 µM.
For the compound `COc1cc2nc(N3CCN(C(=O)C4COc5ccccc5O4)CC3)nc(N)c2cc1OC` (stereo not drawn) [doxazosin], the micturition pressure result in data set [2] was “decrease in micturition pressure”.
